# Results from patent US20160081938A1, “ACAMPROSATE FORMULATIONS, METHODS OF USING THE SAME, AND COMBINATIONS COMPRISING THE SAME” (Synchroneuron Inc., priority 2013, published 2016).
# How the values were obtained:
# [1] = Simulated sustained release in a dog model; assay type: in vivo; settings: sustained presentation over eight hours
# Method: It has been discovered that the shape of the PK curve and not just the AUC can make a difference to efficacy. Specifically, having a plasma concentration above a threshold for several hours per day (e.g., 4-8 hours) may be more efficacious than maintaining a concentration just below that threshold for 24 hours a day. […] In this model, the drug conserved by avoiding a high single dose and high Cmax was distributed across several hours, giving a several hour period in which the plasma concentration of acamprosate was higher than the plasma concentration after administration of a single dose of the immediate release version.
# In a dog study of simulated sustained release of acamprosate it was shown that through sustained release a higher residence time above a threshold can be attained than by giving the same dose all at once. Combining the results from the dog study with the implications of the reported human cases we contemplate that acamprosate delivered by a sustained release system can relieve symptoms of TD and other neuropsychiatric disorders given once or twice a day. […] Thus it appears that a total daily dose of less than one gram of sustained release acamprosate, given on a twice a day basis, or perhaps even on a once a day basis, could be adequate to treat TD in the case examples. […]
# [2] = high solubility and low permeability; cited from earlier work
smiles,measurement,setting,value
"CC(=O)NCCCS(=O)(=O)O [Acamprosate, 3-(acetylamino)-1-propanesulfonic acid]",residence time above a threshold concentration vs immediate release of the same dosage,[1],significantly longer residence time
same,Biopharmaceuticals Classification System (BCS) class,[2],Class III
